# According to patent publication US20250270159A1, “1-(CYCLOBUTANEMETHYLIDENE)-2, 4, 5-TRIMETHOXYBENZENE COMPOUND AND PREPARATION METHOD AND USE THEREOF” (CHENGDU XINRUI TAIKANG TECHNOLOGY CO., LTD., priority 2023, published 2025):
# Test system: ischemic stroke induced by the filament technique in rats
# Experiment: Long-term ischemic stroke (MCAO), bonding (adhesive tape) test
# Type: in vivo
# Conditions: for Time for rats to perceive tape, Day 1 / Time for rats to perceive tape, Day 4 / Time for rats to perceive tape, Day 7 / Time for rats to perceive tape, Day 10 / Time for rats to perceive tape, Day 14 / Time of removing tape, Day 1 / Time of removing tape, Day 4 / Time of removing tape, Day 7 / Time of removing tape, Day 10 / Time of removing tape, Day 14: cut-off 60 s
# Procedure: The rats were randomly divided into a sham operation group (Sham group, given a blank emulsion with a volume equal to that of the high-dose CTMB group), a model group (Vehicle group, given a blank emulsion with a volume equal to that of the high-dose CTMB group), a low-dose CTMB group (CTMB-L group, 10 mg/kg), a high-dose CTMB group (CTMB-H group, 20 mg/kg), and an edaravone dexborneol injection concentrated solution group (EDB group, commercially available, 3 mg/kg). 10 rats were included in each group, which were administered by intraperitoneal injection. It should be noted that in the experiment, the mode of administration for rats was intraperitoneal injection, and a ratio of the effective dose of CTMB, the active ingredient in the emulsion injection, to the unit mass of the human body was within a range of 0.2 mg-4.0 mg/kg, which referred to the ratio of the effective dose of CTMB, the active ingredient in the emulsion injection, to the unit mass of the human body during intravenous infusion, which was extrapolated from the effective dose of the rats. Considering the different bioavailability, peak concentration, and peak time of the drug due to different species and different modes of administration, the effective dose of the active ingredient CTMB in the emulsion injection to the unit mass of human body was finally determined to be 0.2 mg-4.0 mg/kg through conversion.
# The rats were fasted for 12 h before procedure, and the rats were anesthetized with 10% chloral hydrate (350 mg/kg, i.p.). The rats were fixed in the supine position, and the body temperature was maintained at about 37° C. For neck preparation, a median neck incision was made, the muscle and fascia were separated along the inner edge of the sternocleidomastoid muscle to expose the right side, the common carotid artery (CCA), external carotid artery (ECA), and internal carotid artery (ICA) were separated bluntly, and the lines were disposed of proximally in the CCA proximal end, ICA, and ECA for backup. The CCA proximal end and ECA were ligatured, and an arterial clip was used to temporarily close the ICA, then a small hole was poked at a position of CCA having about 4 mm from the bifurcation with a needle. The filament was inserted into the ICA through the CCA, the arterial clipped on ICA was loosened, and the filament was slowly advanced. When the mark on the filament reached the bifurcation and a slight resistance was felt, the thin wire at ICA was tightened, and saline was used to clean the wound and then suture was performed. The sham procedure was the same as the experimental group except that no filament was inserted. After anesthesia, the rats were raised normally.
# Rats were trained in adhesion experiments for one week before modeling, and those that could successfully tear off the tape within 10 s were screened for modeling. After 2 h of modeling by the filament technique, the rats were immediately administered with the drug according to the grouped administration plan. Thereafter, the rats were continued to be administered with the drug once a day for 14 days, and adhesion experiments were performed on days 1, 4, 7, 10, and 14 to assess sensory and motor nerve function. The specific operation was as follows. A circular tape with a diameter of about 12 mm was adhered to the plantar surface of the left forelimb of the rat, and the sensation and removal time of the tape was recorded. If the mice were unable to perceive and/or remove the tape within 60 s, 60 s were recorded.
smiles,measurement,setting,value
"COc1cc(OC)c(OC)cc1C=C1CCC1 [CTMB, 1-(cyclobutylidenemethyl)-2,4,5-trimethoxybenzene]",toxic side effects associated with administration,"10 and 20 mg/kg ip once a day for 14 days, bonding test",No toxic side effects
same,"Time for rats to perceive tape, Day 1",CTMB-H 20 mg/kg ip once a day,31.17 ± 24.57^#^ s
same,"Time for rats to perceive tape, Day 4",CTMB-H 20 mg/kg ip once a day,25.33 ± 23.41^#^ s
same,"Time for rats to perceive tape, Day 7",CTMB-H 20 mg/kg ip once a day,20.50 ± 22.99^#^ s
same,"Time for rats to perceive tape, Day 10",CTMB-H 20 mg/kg ip once a day,7.00 ± 4.56 s
same,"Time for rats to perceive tape, Day 14",CTMB-H 20 mg/kg ip once a day,8.44 ± 11.94 s
same,"Time of removing tape, Day 1",CTMB-H 20 mg/kg ip once a day,53.67 ± 16.66 s
same,"Time of removing tape, Day 4",CTMB-H 20 mg/kg ip once a day,51.33 ± 17.14 s
same,"Time of removing tape, Day 7",CTMB-H 20 mg/kg ip once a day,48.67 ± 16.55 s
same,"Time of removing tape, Day 10",CTMB-H 20 mg/kg ip once a day,31.11 ± 19.76 s
same,"Time of removing tape, Day 14",CTMB-H 20 mg/kg ip once a day,33.22 ± 23.03 s
same,"Time for rats to perceive tape, Day 1",CTMB-L 10 mg/kg ip once a day,42.25 ± 25.53 s
same,"Time for rats to perceive tape, Day 4",CTMB-L 10 mg/kg ip once a day,27.50 ± 28.05 s
same,"Time for rats to perceive tape, Day 7",CTMB-L 10 mg/kg ip once a day,28.20 ± 28.97^#^ s
same,"Time for rats to perceive tape, Day 10",CTMB-L 10 mg/kg ip once a day,27.11 ± 30.06 s
same,"Time for rats to perceive tape, Day 14",CTMB-L 10 mg/kg ip once a day,10.44 ± 12.44 s
same,"Time of removing tape, Day 1",CTMB-L 10 mg/kg ip once a day,50.75 ± 17.65 s
same,"Time of removing tape, Day 4",CTMB-L 10 mg/kg ip once a day,36.20 ± 24.17 s
same,"Time of removing tape, Day 7",CTMB-L 10 mg/kg ip once a day,"38.60 ± 26.15^#, * s"
same,"Time of removing tape, Day 10",CTMB-L 10 mg/kg ip once a day,26.63 ± 27.80 s
same,"Time of removing tape, Day 14",CTMB-L 10 mg/kg ip once a day,26.22 ± 21.48 s
